Experimental findings from patent publication US20230321171A1, “ANTI-COCCIDIAL COMPOSITION COMPRISING MANGOSTEEN AND USES THEREOF” (CJ CHEILJEDANG CORPORATION, priority 2020, published 2023) are described below.

SMILES strings stand for the structures.

Data set [1] has as its system Eimeria tenella. The data set is described as follows: Protozoan (sporozoite) direct killing ability, Eimeria tenella. It counts as cell-based. The note with it: Table 15, method similar to Example 2-1.
Data set [2] has as its system RAW264.7(Mouse macrophage cell). The data set is described as follows: Cytotoxicity, MTS analysis, RAW264.7. The note with it: 3.1~500 ppm/well, 14 hours + 2 hours MTS, vs 5% DMSO treatment group. The text has this:
(§1) In the present example, using MTS analysis method (3-(4,5-[…])-5-(3-carboxymethoxyphenyl)-2-(4-sulfophenyl)-2H-tetrazolium, promega, USA), an effect on survival of cells of the mangosteen extract was investigated.
(§2) The cell lines utilized in cytotoxicity evaluation were (1) MDBK(Madin-Darby Bovine Kidney Epithelial Cells) and (2) RAW264.7(Mouse macrophage cell), and all of them were purchased from ATCC and used.
(§3) Each cell was aliquoted at a concentration of 1×10^5 cell/well in a 96-well cell culture plate, and cultured at 37° C. for 24 hours, and then each material (mangosteen extract, xanthone, alpha-mangostin and epicatechin) was treated by concentration (3.1˜500 ppm/well) and cultured at a temperature of 37° C.

For data set [3], the system named is Eimeria tenella. The experiment in a line: Protozoan (sporozoite) direct killing ability, Eimeria tenella. It counts as cell-based. As to conditions: Table 12 comparison with individual components. As for the experimental part: In the present example, protozoan (sporozoite) direct killing ability evaluation was conducted against 3 representative Eimeria kinds known to be infected in most farms (E. tenella, E. acervulina, E. maxima).
A certain amount of oocysts of each protozoan was put in a tube containing glass beads and pulverized, and then to remove the crushed oocyst cell wall and other debris, internal sporocysts were purified using the percoll density gradient, and washed with PBS solution. A reagent comprising sodium taurocholic acid (Sigma aldrich, USA) and trypsin (Gibco, USA), respectively, was treated to sporocysts of Eimeria tenella, Eimeria acervulina and Eimeria maxima for excystation and they were incubated, and then they were washed with PBS solution once and protozoa were obtained.
After reacting the mangosteen pericarp extract, epicatechin, alpha-mangostin, xanthone and anticoccidial agents, salinomycin and diclazuril (hereinafter, material) with 3 kinds of Eimeria protozoa at various concentrations of 1 to 500 ppm, respectively, only alive protozoa (sporozoites) were counted through microscopic observation. Then, the death rate (%) of the protozoa when each material was treated compared to the PBS-treated negative control group was calculated and shown in Table 8 to Table 10 and Table 12, respectively, and the minimum concentration which directly killed the protozoa by 100% was shown in Table 11 below.

Data set [4] deals with MDBK(Madin-Darby Bovine Kidney Epithelial Cells). The experiment in a line: Cytotoxicity, MTS analysis, MDBK. The note with it: 3.1~500 ppm/well, 14 hours + 2 hours MTS, vs 5% DMSO treatment group.
From the text: as §1, §2, §3

Take `COc1c(O)cc2oc3cc(O)c(CC=C(C)C)c(O)c3c(=O)c2c1CC=C(C)C` [Alpha-mangostin, alpha-mangostin]: in data set [1], the “Minimum concentrataion of killing protozoa 100% (ppm)” value was not below 31.3 ppm. In addition, the “Minimum concentrataion of cytotoxicity at which cells of 50% or more survive (ppm)” value in data set [2] is on record as not below 15.6 ppm; in data set [4], not below 7.8 ppm. The results for the “Eimeria tenella protozoal death rate” value in data set [3] (3.9 ppm), in data set [3] (7.8 ppm) and in data set [3] (15.6 ppm) were 23.3%, 50% and 93.3%, respectively.
